# From patent US20060069132A1, “Azolecarboxamide herbicides” (priority 2004, published 2006)
# Tests used:
# barnyardgrass [1] = experiment: Test B pre-/postemergence herbicide test; type: in vivo, Echinochloa crus-galli; settings: for Barnyardgrass plant response rating (0 to 100 scale) / Plant response rating, Barnyardgrass: 0 = no effect, 100 = complete control, preemergence; for Barnyardgrass plant response rating: postemergence
# Summary of the method: (§1)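 Seeds were planted and treated preemergence with compounds formulated in a non-phytotoxic solvent mixture containing surfactant, while plants at the 1- to 4-leaf stage (2 to 18 cm) received postemergence sprays. Flooded paddy plants were grown to the 2-leaf stage. After 13 to 15 days in a greenhouse, injury was visually rated 0–100 against untreated controls.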
# large crabgrass = experiment: Test B pre-/postemergence herbicide test; type: in vivo, Digitaria sanguinalis; settings: for Crabgrass, Large plant response rating (0 to 100 scale) / Plant response rating, Crabgrass, Large: 0 = no effect, 100 = complete control, preemergence; for Crabgrass, Large plant response rating: postemergence
# Summary of the method: (§2)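 Herbicidal effect was judged by eye on a 0–100 scale after plants stood 13 to 15 days in the greenhouse following pre- or postemergence treatment with surfactant-containing formulations.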
# wheat = experiment: Test B postemergence herbicide test; type: in vivo, Triticum aestivum; parameters: key to Wheat plant response rating: 0 = no effect, 100 = complete control; settings: postemergence
# Summary of the method: (§3)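 Each value is a visual 0–100 response rating taken against controls 13 to 15 days after treatment in the greenhouse. Plants received formulated chemical postemergence at the 1- to 4-leaf stage or, in flooded paddy, at the 2-leaf stage.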
# Surinam grass = experiment: Test B pre-/postemergence herbicide test; type: in vivo, Urochloa decumbens; settings: for Surinam Grass plant response rating (0 to 100 scale) / Plant response rating, Surinam Grass: 0 = no effect, 100 = complete control, preemergence; for Surinam Grass plant response rating: postemergence
# Summary of the method: as §2
# rice = experiment: Test B flooded paddy test; type: in vivo, Oryza sativa; settings: 1000 g ai/ha, scale 0 to 100 (0 no effect, 100 complete control)
# Summary of the method: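 Treated at 2-leaf (paddy) or 1–4-leaf, 2–18 cm (postemergence); greenhouse 13–15 d; visual score vs control, 0 none to 100 complete control; dash = not tested.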
# [2] = tested on: small flower umbrella sedge; experiment: Test B flooded paddy test; type: in vivo, Cyperus difformis; settings: 1000 g ai/ha, scale 0 to 100 (0 no effect, 100 complete control)
# Summary of the method: (§4)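 Postemergence plants were sprayed with formulated test chemicals at 2 to 18 cm height (1- to 4-leaf stage); paddy species were grown to the 2-leaf stage. After 13 to 15 days in a greenhouse, injury was rated visually against untreated controls on a 0–100 scale (0 = no effect, 100 = complete control).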
# barnyardgrass [3] = experiment: Test B flooded paddy test; type: in vivo, Echinochloa crus-galli; settings: 1000 g ai/ha, scale 0 to 100 (0 no effect, 100 complete control)
# Summary of the method: as §4
# giant foxtail = experiment: Test B pre-/postemergence herbicide test; type: in vivo, Setaria faberi; settings: for Foxtail, Giant plant response rating (0 to 100 scale) / Plant response rating, Foxtail, Giant: 0 = no effect, 100 = complete control, preemergence; for Foxtail, Giant plant response rating: postemergence
# Summary of the method: as §2
# blackgrass = experiment: Test B postemergence herbicide test; type: in vivo, Alopecurus myosuroides; settings: postemergence
# Summary of the method: as §4
# lambsquarters = experiment: Test B pre-/postemergence herbicide test; type: in vivo, Chenopodium album; settings: for Lambsquarters plant response rating (0 to 100 scale) / Plant response rating, Lambsquarters: 0 = no effect, 100 = complete control, preemergence; for Lambsquarters plant response rating: postemergence
# Summary of the method: as §2
# ducksalad = experiment: Test B flooded paddy test; type: in vivo, Heteranthera limosa; settings: 1000 g ai/ha, scale 0 to 100 (0 no effect, 100 complete control)
# Summary of the method: as §4
# cocklebur = experiment: Test B pre-/postemergence herbicide test; type: in vivo, Xanthium strumarium; settings: for Cocklebur plant response rating (0 to 100 scale) / Plant response rating, Cocklebur: 0 = no effect, 100 = complete control, preemergence; for Cocklebur plant response rating: postemergence
# Summary of the method: as §1
# wild oat = experiment: Test B postemergence herbicide test; type: in vivo, Avena fatua; settings: postemergence
# Summary of the method: as §3
# pigweed = experiment: Test B pre-/postemergence herbicide test; type: in vivo, Amaranthus retroflexus; settings: for Pigweed plant response rating (0 to 100 scale) / Plant response rating, Pigweed: 0 = no effect, 100 = complete control, preemergence; for Pigweed plant response rating: postemergence
# Summary of the method: as §2
# corn = experiment: Test B pre-/postemergence herbicide test; type: in vivo, Zea mays; settings: for Corn plant response rating (0 to 100 scale) / Plant response rating, Corn: 0 = no effect, 100 = complete control, preemergence; for Corn plant response rating: postemergence
# Summary of the method: as §2
# morningglory = experiment: Test B pre-/postemergence herbicide test; type: in vivo, Ipomoea coccinea; settings: for Morningglory plant response rating (0 to 100 scale) / Plant response rating, Morningglory: 0 = no effect, 100 = complete control, preemergence; for Morningglory plant response rating: postemergence
# Summary of the method: as §1
# [4] = 125 g ai/ha, visual rating, scale 0 (no effect) to 100 (complete control)
# [5] = 500 g ai/ha, scale 0 to 100, 0 is no effect, 100 is complete control
smiles,measurement,setting,value
CCn1nc(C(C)(C)C)cc1C(=S)Nc1cc(C(=S)N(C)C)ccc1F [Compound 305],Barnyardgrass plant response rating (0 to 100 scale),barnyardgrass [1]; 125 g ai/ha,80
same,Barnyardgrass plant response rating,barnyardgrass [1]; [4],0
same,"Plant response rating, Barnyardgrass","barnyardgrass [1]; 500 g ai/ha, visual rating",90
same,Barnyardgrass plant response rating,barnyardgrass [1]; [5],0
same,"Crabgrass, Large plant response rating (0 to 100 scale)",large crabgrass; 125 g ai/ha,90
same,"Crabgrass, Large plant response rating",large crabgrass; [4],0
same,"Plant response rating, Crabgrass, Large","large crabgrass; 500 g ai/ha, visual rating",100
same,"Crabgrass, Large plant response rating",large crabgrass; [5],0
same,Wheat plant response rating,wheat; [4],0
same,Wheat plant response rating,wheat; [5],10
same,Surinam Grass plant response rating (0 to 100 scale),Surinam grass; 125 g ai/ha,80
same,Surinam Grass plant response rating,Surinam grass; [4],0
same,"Plant response rating, Surinam Grass","Surinam grass; 500 g ai/ha, visual rating",100
same,Surinam Grass plant response rating,Surinam grass; [5],20
same,Rice plant response rating,rice,70
same,"Sedge, Umbrella plant response rating",[2],90
same,Barnyardgrass plant response rating,barnyardgrass [3],90
same,"Foxtail, Giant plant response rating (0 to 100 scale)",giant foxtail; 125 g ai/ha,80
same,"Foxtail, Giant plant response rating",giant foxtail; [4],20
same,"Plant response rating, Foxtail, Giant","giant foxtail; 500 g ai/ha, visual rating",100
same,"Foxtail, Giant plant response rating",giant foxtail; [5],20
same,Blackgrass plant response rating,blackgrass; [4],20
same,Blackgrass plant response rating,blackgrass; [5],30
same,Lambsquarters plant response rating (0 to 100 scale),lambsquarters; 125 g ai/ha,100
same,Lambsquarters plant response rating,lambsquarters; [4],50
same,"Plant response rating, Lambsquarters","lambsquarters; 500 g ai/ha, visual rating",100
same,Lambsquarters plant response rating,lambsquarters; [5],80
same,Ducksalad plant response rating,ducksalad,80
same,Cocklebur plant response rating (0 to 100 scale),cocklebur; 125 g ai/ha,50
same,Cocklebur plant response rating,cocklebur; [4],10
same,"Plant response rating, Cocklebur","cocklebur; 500 g ai/ha, visual rating",70
same,Cocklebur plant response rating,cocklebur; [5],10
same,"Oat, Wild plant response rating",wild oat; [4],10
same,"Oat, Wild plant response rating",wild oat; [5],30
same,Pigweed plant response rating (0 to 100 scale),pigweed; 125 g ai/ha,100
same,Pigweed plant response rating,pigweed; [4],0
same,"Plant response rating, Pigweed","pigweed; 500 g ai/ha, visual rating",100
same,Pigweed plant response rating,pigweed; [5],70
same,Corn plant response rating (0 to 100 scale),corn; 125 g ai/ha,10
same,Corn plant response rating,corn; [4],70
same,"Plant response rating, Corn","corn; 500 g ai/ha, visual rating",60
same,Corn plant response rating,corn; [5],70
same,Morningglory plant response rating (0 to 100 scale),morningglory; 125 g ai/ha,0
same,Morningglory plant response rating,morningglory; [4],0
same,"Plant response rating, Morningglory","morningglory; 500 g ai/ha, visual rating",0
same,Morningglory plant response rating,morningglory; [5],0
CCNC(=O)c1cccc(NC(=O)c2cc(C3(C)CC3)nn2CC)c1 [Compound 306],Barnyardgrass plant response rating (0 to 100 scale),barnyardgrass [1]; 125 g ai/ha,60
same,Barnyardgrass plant response rating,barnyardgrass [1]; [4],10
same,"Plant response rating, Barnyardgrass","barnyardgrass [1]; 500 g ai/ha, visual rating",90
same,Barnyardgrass plant response rating,barnyardgrass [1]; [5],10
same,"Crabgrass, Large plant response rating (0 to 100 scale)",large crabgrass; 125 g ai/ha,100
same,"Crabgrass, Large plant response rating",large crabgrass; [4],10
same,"Plant response rating, Crabgrass, Large","large crabgrass; 500 g ai/ha, visual rating",100
same,"Crabgrass, Large plant response rating",large crabgrass; [5],50
same,Wheat plant response rating,wheat; [4],10
same,Wheat plant response rating,wheat; [5],20
same,Surinam Grass plant response rating (0 to 100 scale),Surinam grass; 125 g ai/ha,30
same,Surinam Grass plant response rating,Surinam grass; [4],10
same,"Plant response rating, Surinam Grass","Surinam grass; 500 g ai/ha, visual rating",90
same,Surinam Grass plant response rating,Surinam grass; [5],30
same,Rice plant response rating,rice,60
same,"Sedge, Umbrella plant response rating",[2],80
same,Barnyardgrass plant response rating,barnyardgrass [3],80
same,"Foxtail, Giant plant response rating (0 to 100 scale)",giant foxtail; 125 g ai/ha,40
same,"Foxtail, Giant plant response rating",giant foxtail; [4],10
same,"Plant response rating, Foxtail, Giant","giant foxtail; 500 g ai/ha, visual rating",100
same,"Foxtail, Giant plant response rating",giant foxtail; [5],40
same,Blackgrass plant response rating,blackgrass; [4],10
same,Blackgrass plant response rating,blackgrass; [5],30
same,Lambsquarters plant response rating (0 to 100 scale),lambsquarters; 125 g ai/ha,100
same,Lambsquarters plant response rating,lambsquarters; [4],70
same,"Plant response rating, Lambsquarters","lambsquarters; 500 g ai/ha, visual rating",100
same,Lambsquarters plant response rating,lambsquarters; [5],80
same,Ducksalad plant response rating,ducksalad,80
same,Cocklebur plant response rating (0 to 100 scale),cocklebur; 125 g ai/ha,0
same,Cocklebur plant response rating,cocklebur; [4],30
same,"Plant response rating, Cocklebur","cocklebur; 500 g ai/ha, visual rating",50
same,Cocklebur plant response rating,cocklebur; [5],70
same,"Oat, Wild plant response rating",wild oat; [4],20
same,"Oat, Wild plant response rating",wild oat; [5],30
same,Pigweed plant response rating (0 to 100 scale),pigweed; 125 g ai/ha,100
same,Pigweed plant response rating,pigweed; [4],70
same,"Plant response rating, Pigweed","pigweed; 500 g ai/ha, visual rating",100
same,Pigweed plant response rating,pigweed; [5],100
same,Corn plant response rating (0 to 100 scale),corn; 125 g ai/ha,70
same,Corn plant response rating,corn; [4],30
same,"Plant response rating, Corn","corn; 500 g ai/ha, visual rating",100
same,Corn plant response rating,corn; [5],30
same,Morningglory plant response rating (0 to 100 scale),morningglory; 125 g ai/ha,10
same,"Plant response rating, Morningglory","morningglory; 500 g ai/ha, visual rating",10
same,Morningglory plant response rating,morningglory; [5],70
